# In US4179433A, “Angiotensin II antagonist peptides containing an alpha-aminooxyacid in the position-1” (Richter Gedeon Vegyeszeti Gyar Rt., priority 1977, dated 1979):
# Test system: narcoticized male cats
# Assay: Decrease in arterial blood pressure after intravenous administration, under i.v. infusion of angiotensin II
# Type: in vivo, cat
# Settings: single dose, angiotensin II infusion 0.5 μg/kg/min, average of 6 experiments
# Procedure: The antagonistic activity of the compounds having the formula I was tested on narcoticized male cats. The blood pressure was measured on the cervical artery. The tests were performed by introducing a Hypertension (CIBA) infusion into a lateral femoral vane at a speed of 0.5 μg/kg/min. When the increase in blood pressure was stabilized, the aqueous, physiological or carrier-containing solutions of the test compounds and Saralasin were administered in a single dose, intravenously or subcutaneously, and the decrease in blood pressure was measured. In the Table I the decrease in the arterial blood pressure under the influence of an intravenous administration of the test compounds is illustrated. For comparison Saralasin is used. The data set forth in the Table 1 were obtained by calculating the average of the results of 6 experiments. The margins of error indicate the scatter of the main value.
smiles,measurement,value
CNCC(=O)N[C@@H](CCCN=C(N)N)C(=O)N[C@H](C(=O)N[C@@H](Cc1ccc(O)cc1)C(=O)N[C@H](C(=O)N[C@@H](Cc1cnc[nH]1)C(=O)N1CCC[C@H]1C(=O)N[C@@H](C)C(=O)O)C(C)C)C(C)C [Saralasin],Decrease in blood pressure (mmHg) after administration of 10 μg/kg i.v. doses,-41±2.5 mmHg
